Measurements from patent publication US6737383B1, “Herbicidal oxadiazolidines” (priority 1999, dated 2004).

Assays:
rape = test: Test B pre/postemergence rape; assay type: in vivo, Brassica napus
How it was run: (§1)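 Test chemicals in a non-phytotoxic solvent mixture with surfactant were sprayed preemergence onto planted seeds and postemergence onto plants 2 to 18 cm tall (1- to 4-leaf stage). After twelve to sixteen days in a greenhouse, injury was visually rated against untreated controls from 0 (no effect) to 10 (complete control).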

soybean = test: Test B pre/postemergence soybean; assay type: in vivo, Glycine max
How it was run: as §1

purple nutsedge = test: Test B pre/postemergence purple nutsedge; assay type: in vivo, Cyperus rotundus; conditions: for Plant response rating, Nutsedge: Postemergence, scale of 0 to 10 where 0 is no effect and 10 is complete control
How it was run: as §1

surinam grass = test: Test B pre/postemergence surinam grass; assay type: in vivo, Brachiaria decumbens; conditions: for Plant response rating, B. signalgrass: Postemergence
How it was run: as §1

wild oat = test: Test B pre/postemergence wild oat; assay type: in vivo, Avena fatua
How it was run: as §1

crabgrass = test: Test B pre/postemergence crabgrass; assay type: in vivo, Digitaria sanguinalis
How it was run: as §1

cocklebur = test: Test B pre/postemergence cocklebur; assay type: in vivo, Xanthium strumarium
How it was run: as §1

wheat = test: Test B pre/postemergence wheat; assay type: in vivo, Triticum aestivum
How it was run: as §1

velvetleaf = test: Test B pre/postemergence velvetleaf; assay type: in vivo, Abutilon theophrasti
How it was run: as §1

morningglory = test: Test B pre/postemergence morningglory; assay type: in vivo, Ipomoea hederacea
How it was run: as §1

corn = test: Test B pre/postemergence corn; assay type: in vivo, Zea mays
How it was run: as §1

pigweed = test: Test B pre/postemergence pigweed; assay type: in vivo, Amaranthus retroflexus
How it was run: as §1

giant foxtail = test: Test B pre/postemergence giant foxtail; assay type: in vivo, Setaria faberii
How it was run: as §1

bedstraw = test: Test B pre/postemergence bedstraw; assay type: in vivo, Galium aparine
How it was run: as §1

sugar beet = test: Test B pre/postemergence sugar beet; assay type: in vivo, Beta vulgaris
How it was run: as §1

blackgrass = test: Test B pre/postemergence blackgrass; assay type: in vivo, Alopecurus myosuroides
How it was run: as §1

[1] = Postemergence, Rate 62 g/ha, scale of 0 to 10, 0 is no effect, 10 is complete control
[2] = Postemergence, Rate 125 g/ha, scale 0 to 10, 0 is no effect, 10 is complete control
[3] = Postemergence, Rate 500 g/ha, scale of 0 to 10 where 0 is no effect and 10 is complete control
[4] = Preemergence, Rate 62 g/ha, scale 0 to 10 (0 no effect, 10 complete control)
[5] = Preemergence, Rate 125 g/ha, scale 0 to 10, 0 is no effect, 10 is complete control
[6] = Preemergence, Rate 500 g/ha, scale of 0 to 10 where 0 is no effect and 10 is complete control
[7] = Rate 250 g/ha, Postemergence, scale of 0 to 10 where 0 is no effect and 10 is complete control

For `COCn1c(=O)on(C(=O)N(c2ccccc2)C(C)C)c1=O` [Compound 562], the “Rape plant response rating” value (rape; [1]) was 0, the “Rape plant response rating” value (rape; [2]) was 0 and the “Plant response rating, Rape” value (rape; [3]) was 7. For the same compound, the “Rape plant response rating” value (rape; [4]) was 0, the “Rape plant response rating” value (rape; [5]) was 6 and the “Rape plant response rating (0 to 10 scale)” value (rape; Preemergence, Rate 250 g/ha) was 10. For the same compound, the “Rape plant response rating” value (rape; [6]) was 10, the “Plant response rating, Rape” value (rape; [7]) was 0 and the “Soybean plant response rating” value (soybean; [1]) was 3. For the same compound, the “Plant response rating, Soybean” value (soybean; [3]) was 5, the “Soybean plant response rating” value (soybean; [4]) was 0 and the “Soybean plant response rating” value (soybean; [5]) was 0. The “Soybean plant response rating (0 to 10 scale)” value (soybean; Preemergence, Rate 250 g/ha) was 9, the “Soybean plant response rating” value (soybean; [6]) was 9 and the “Plant response rating, Soybean” value (soybean; [7]) was 4. For the same compound, the “Plant response rating, Nutsedge” value (purple nutsedge; Rate 500 g/ha) was 5, the “Nutsedge plant response rating” value (purple nutsedge; [4]) was 0 and the “Nutsedge plant response rating” value (purple nutsedge; [5]) was 0. For the same compound, the “Nutsedge plant response rating (0 to 10 scale)” value (purple nutsedge; Preemergence, Rate 250 g/ha) was 0, the “Plant response rating, Nutsedge” value (purple nutsedge; Rate 250 g/ha) was 5 and the “Plant response rating, B. signalgrass” value (surinam grass; Rate 500 g/ha, scale of 0 to 10 where 0 is no effect and 10 is complete control) was 7. For the same compound, the “B. signalgrass plant response rating” value (surinam grass; [4]) was 5, the “B. signalgrass plant response rating” value (surinam grass; [5]) was 8 and the “B. signalgrass plant response rating (0 to 10 scale, 0 is no effect, 10 is complete control)” value (surinam grass; Preemergence, Rate 250 g/ha) was 10. For the same compound, the “B. signalgrass plant response rating” value (surinam grass; [6]) was 10, the “Plant response rating, B. signalgrass” value (surinam grass; Rate 250 g/ha, scale of 0 to 10 where 0 is no effect and 10 is complete control) was 5 and the “Wild oats plant response rating” value (wild oat; [1]) was 0. For the same compound, the “Plant response rating, Wild oats” value (wild oat; [3]) was 4, the “Wild oats plant response rating” value (wild oat; [4]) was 4 and the “Wild oats plant response rating” value (wild oat; [5]) was 9. For the same compound, the “Wild oats plant response rating (0 to 10 scale)” value (wild oat; Preemergence, Rate 250 g/ha) was 10, the “Wild oats plant response rating” value (wild oat; [6]) was 10 and the “Plant response rating, Wild oats” value (wild oat; [7]) was 0. The “Crabgrass plant response rating” value (crabgrass; [1]) was 7, the “Crabgrass plant response rating” value (crabgrass; [2]) was 5 and the “Plant response rating, Crabgrass” value (crabgrass; [3]) was 10. The “Crabgrass plant response rating” value (crabgrass; [4]) was 8, the “Crabgrass plant response rating” value (crabgrass; [5]) was 8 and the “Crabgrass plant response rating (0 to 10 scale)” value (crabgrass; Preemergence, Rate 250 g/ha) was 10. The “Crabgrass plant response rating” value (crabgrass; [6]) was 10, the “Plant response rating, Crabgrass” value (crabgrass; [7]) was 7 and the “Cocklebur plant response rating” value (cocklebur; [1]) was 2. For the same compound, the “Cocklebur plant response rating” value (cocklebur; [2]) was 2, the “Plant response rating, Cocklebur” value (cocklebur; [3]) was 2 and the “Cocklebur plant response rating” value (cocklebur; [4]) was 0. For the same compound, the “Cocklebur plant response rating” value (cocklebur; [5]) was 0, the “Cocklebur plant response rating (0 to 10 scale)” value (cocklebur; Preemergence, Rate 250 g/ha) was 0 and the “Cocklebur plant response rating” value (cocklebur; [6]) was 2. The “Plant response rating, Cocklebur” value (cocklebur; [7]) was 2, the “Wheat plant response rating” value (wheat; [1]) was 0 and the “Plant response rating, Wheat” value (wheat; [3]) was 5. The “Wheat plant response rating” value (wheat; [4]) was 3, the “Wheat plant response rating” value (wheat; [5]) was 9 and the “Wheat plant response rating (0 to 10 scale)” value (wheat; Preemergence, Rate 250 g/ha) was 9. The “Wheat plant response rating” value (wheat; [6]) was 9, the “Plant response rating, Wheat” value (wheat; [7]) was 7 and the “Velvetleaf plant response rating” value (velvetleaf; [1]) was 3. The “Plant response rating, Velvetleaf” value (velvetleaf; [3]) was 6, the “Velvetleaf plant response rating” value (velvetleaf; [4]) was 0 and the “Velvetleaf plant response rating” value (velvetleaf; [5]) was 0. The “Velvetleaf plant response rating (0 to 10 scale)” value (velvetleaf; Preemergence, Rate 250 g/ha) was 0, the “Velvetleaf plant response rating” value (velvetleaf; [6]) was 7 and the “Plant response rating, Velvetleaf” value (velvetleaf; [7]) was 6. The “Morningglory plant response rating” value (morningglory; [1]) was 4, the “Morningglory plant response rating” value (morningglory; [2]) was 4 and the “Plant response rating, Morningglory” value (morningglory; [3]) was 10. For the same compound, the “Morningglory plant response rating” value (morningglory; [4]) was 0, the “Morningglory plant response rating” value (morningglory; [5]) was 0 and the “Morningglory plant response rating (0 to 10 scale)” value (morningglory; Preemergence, Rate 250 g/ha) was 0. For the same compound, the “Morningglory plant response rating” value (morningglory; [6]) was 8, the “Plant response rating, Morningglory” value (morningglory; [7]) was 10 and the “Corn plant response rating” value (corn; [1]) was 0. The “Corn plant response rating” value (corn; [2]) was 3, the “Plant response rating, Corn” value (corn; [3]) was 7 and the “Corn plant response rating” value (corn; [4]) was 0. The “Corn plant response rating” value (corn; [5]) was 3, the “Corn plant response rating (0 to 10 scale)” value (corn; Preemergence, Rate 250 g/ha) was 9 and the “Corn plant response rating” value (corn; [6]) was 9. The “Plant response rating, Corn” value (corn; [7]) was 7, the “Redroot pigweed plant response rating” value (pigweed; [1]) was 9 and the “Plant response rating, Redroot pigweed” value (pigweed; [3]) was 9. For the same compound, the “Redroot pigweed plant response rating” value (pigweed; [4]) was 10, the “Redroot pigweed plant response rating” value (pigweed; [5]) was 10 and the “Redroot pigweed plant response rating (0 to 10 scale)” value (pigweed; Preemergence, Rate 250 g/ha) was 10. The “Redroot pigweed plant response rating” value (pigweed; [6]) was 10, the “Plant response rating, Redroot pigweed” value (pigweed; [7]) was 9 and the “Giant foxtail plant response rating” value (giant foxtail; [1]) was 7. For the same compound, the “Giant foxtail plant response rating” value (giant foxtail; [2]) was 7, the “Plant response rating, Giant foxtail” value (giant foxtail; [3]) was 8 and the “Giant foxtail plant response rating” value (giant foxtail; [4]) was 4. The “Giant foxtail plant response rating” value (giant foxtail; [5]) was 9, the “Giant foxtail plant response rating (0 to 10 scale)” value (giant foxtail; Preemergence, Rate 250 g/ha) was 8 and the “Giant foxtail plant response rating” value (giant foxtail; [6]) was 8. The “Plant response rating, Giant foxtail” value (giant foxtail; [7]) was 8, the “Bedstraw plant response rating” value (bedstraw; [4]) was 0 and the “Bedstraw plant response rating” value (bedstraw; [5]) was 0. For the same compound, the “Bedstraw plant response rating (0 to 10 scale)” value (bedstraw; Preemergence, Rate 250 g/ha) was 0, the “Bedstraw plant response rating” value (bedstraw; [6]) was 0 and the “Plant response rating, Bedstraw” value (bedstraw; [7]) was 4. The “Sugarbeets plant response rating” value (sugar beet; [1]) was 3, the “Plant response rating, Sugarbeets” value (sugar beet; [3]) was 5 and the “Sugarbeets plant response rating” value (sugar beet; [4]) was 6. The “Sugarbeets plant response rating” value (sugar beet; [5]) was 8, the “Sugarbeets plant response rating (0 to 10 scale)” value (sugar beet; Preemergence, Rate 250 g/ha) was 9 and the “Sugarbeets plant response rating” value (sugar beet; [6]) was 9. For the same compound, the “Plant response rating, Sugarbeets” value (sugar beet; [7]) was 3, the “Blackgrass plant response rating” value (blackgrass; [1]) was 3 and the “Blackgrass plant response rating” value (blackgrass; [2]) was 3. The “Plant response rating, Blackgrass” value (blackgrass; [3]) was 3, the “Blackgrass plant response rating” value (blackgrass; [4]) was 4 and the “Blackgrass plant response rating” value (blackgrass; [5]) was 10. For the same compound, the “Blackgrass plant response rating (0 to 10 scale)” value (blackgrass; Preemergence, Rate 250 g/ha) was 10, the “Blackgrass plant response rating” value (blackgrass; [6]) was 10 and the “Plant response rating, Blackgrass” value (blackgrass; [7]) was 3.
